# Laboratory results from PubChem BioAssay (NCI).
#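 Values below derive from 48-hour exposures of cells grown in 96-well plates, with endpoints linearly interpolated between the two concentrations bracketing the appropriate inhibition level. The concentration for 50% growth inhibition is given as GI50. Definition used: TGI = concentration required for complete inhibition of growth.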
# How the values were obtained:
# Assay in all cases: DTP human tumour cell line panel, 48 h
# EKVX NSCLC = tested on: EKVX NSCLC
# IGROV1 ovarian = tested on: IGROV1 ovarian
# RPMI-8226 leukemia = tested on: RPMI-8226 leukemia
# NCI-H522 lung = tested on: NCI-H522 lung
# MDA-MB-231 breast = tested on: MDA-MB-231 breast
# A549 NSCLC = tested on: A549 NSCLC
# K-562 leukemia = tested on: K-562 leukemia
# UO-31 renal = tested on: UO-31 renal
# ACHN renal = tested on: ACHN renal
# HCC-2998 colon = tested on: HCC-2998 colon
# LOX IMVI melanoma = tested on: LOX IMVI melanoma
# HS 578T breast = tested on: HS 578T breast
# OVCAR-3 ovarian = tested on: OVCAR-3 ovarian
# TK-10 renal = tested on: TK-10 renal
# SW-620 colon = tested on: SW-620 colon
# OVCAR-4 ovarian = tested on: OVCAR-4 ovarian
# CCRF-CEM leukemia = tested on: CCRF-CEM leukemia
# COLO 205 colon = tested on: COLO 205 colon
# HT29 colon = tested on: HT29 colon
# SK-OV-3 ovarian = tested on: SK-OV-3 ovarian
# SK-MEL-5 melanoma = tested on: SK-MEL-5 melanoma
# M14 melanoma = tested on: M14 melanoma
# 786-0 renal = tested on: 786-0 renal
# MOLT-4 leukemia = tested on: MOLT-4 leukemia
# SF-295 CNS = tested on: SF-295 CNS
# SN12C renal = tested on: SN12C renal
# CAKI-1 renal = tested on: CAKI-1 renal
# SNB-19 CNS = tested on: SNB-19 CNS
# SNB-75 CNS = tested on: SNB-75 CNS
# NCI-H226 lung = tested on: NCI-H226 lung
# A498 renal = tested on: A498 renal
# DU-145 prostate = tested on: DU-145 prostate
# NCI-H23 lung = tested on: NCI-H23 lung
# MALME-3M melanoma = tested on: MALME-3M melanoma
# MCF7 breast = tested on: MCF7 breast
# U251 CNS = tested on: U251 CNS
# NCI/ADR-RES ovarian = tested on: NCI/ADR-RES ovarian
# HL-60(TB) leukemia = tested on: HL-60(TB) leukemia
# PC-3 prostate = tested on: PC-3 prostate
# HOP-92 NSCLC = tested on: HOP-92 NSCLC
# T-47D breast = tested on: T-47D breast
# SR leukemia = tested on: SR leukemia
# NCI-H460 lung = tested on: NCI-H460 lung
# SK-MEL-28 melanoma = tested on: SK-MEL-28 melanoma
# HCT-15 colon = tested on: HCT-15 colon
# SK-MEL-2 melanoma = tested on: SK-MEL-2 melanoma
# HCT-116 colon = tested on: HCT-116 colon
# UACC-62 melanoma = tested on: UACC-62 melanoma
# OVCAR-5 ovarian = tested on: OVCAR-5 ovarian
# KM12 colon = tested on: KM12 colon
# MDA-MB-435 = tested on: MDA-MB-435
# HOP-62 NSCLC = tested on: HOP-62 NSCLC
# SF-268 CNS = tested on: SF-268 CNS
# OVCAR-8 ovarian = tested on: OVCAR-8 ovarian
compound,measurement,setting,value
COc1ccc(-n2cc(-c3ccc(OC)c(OC)c3)[nH]c2=O)cc1,GI50,EKVX NSCLC,> 100 µM
same,TGI,EKVX NSCLC,> 100 µM
same,GI50,IGROV1 ovarian,> 100 µM
same,TGI,IGROV1 ovarian,> 100 µM
same,GI50,RPMI-8226 leukemia,> 100000 nM
same,TGI,RPMI-8226 leukemia,> 100 µM
same,GI50,NCI-H522 lung,> 100 µM
same,TGI,NCI-H522 lung,> 100 µM
same,GI50,MDA-MB-231 breast,> 100 µM
same,TGI,MDA-MB-231 breast,> 100 µM
same,GI50,A549 NSCLC,> 100 µM
same,TGI,A549 NSCLC,> 100 µM
same,GI50,K-562 leukemia,> 100 µM
same,TGI,K-562 leukemia,> 100 µM
same,GI50,UO-31 renal,> 100 µM
same,TGI,UO-31 renal,> 100 µM
same,GI50,ACHN renal,> 100 µM
same,TGI,ACHN renal,> 100 µM
same,GI50,HCC-2998 colon,> 100000 nM
same,TGI,HCC-2998 colon,> 100 µM
same,GI50,LOX IMVI melanoma,> 100 µM
same,TGI,LOX IMVI melanoma,> 100 µM
same,GI50,HS 578T breast,> 100 µM
same,TGI,HS 578T breast,> 100 µM
same,GI50,OVCAR-3 ovarian,> 100 µM
same,TGI,OVCAR-3 ovarian,> 100 µM
same,GI50,TK-10 renal,> 100 µM
same,TGI,TK-10 renal,> 100 µM
same,GI50,SW-620 colon,> 100 µM
same,TGI,SW-620 colon,> 100 µM
same,GI50,OVCAR-4 ovarian,> 100 µM
same,TGI,OVCAR-4 ovarian,> 100 µM
same,GI50,CCRF-CEM leukemia,> 100000 nM
same,TGI,CCRF-CEM leukemia,> 100 µM
same,GI50,COLO 205 colon,> 100 µM
same,TGI,COLO 205 colon,> 100 µM
same,GI50,HT29 colon,> 100 µM
same,TGI,HT29 colon,> 100 µM
same,GI50,SK-OV-3 ovarian,> 100000 nM
same,TGI,SK-OV-3 ovarian,> 100 µM
same,GI50,SK-MEL-5 melanoma,> 100 µM
same,TGI,SK-MEL-5 melanoma,> 100 µM
same,GI50,M14 melanoma,> 100 µM
same,TGI,M14 melanoma,> 100 µM
same,GI50,786-0 renal,> 100 µM
same,TGI,786-0 renal,> 100 µM
same,GI50,MOLT-4 leukemia,> 100 µM
same,TGI,MOLT-4 leukemia,> 100 µM
same,GI50,SF-295 CNS,> 100 µM
same,TGI,SF-295 CNS,> 100 µM
same,GI50,SN12C renal,> 100 µM
same,TGI,SN12C renal,> 100 µM
same,GI50,CAKI-1 renal,> 100 µM
same,TGI,CAKI-1 renal,> 100 µM
same,GI50,SNB-19 CNS,> 100 µM
same,TGI,SNB-19 CNS,> 100 µM
same,GI50,SNB-75 CNS,12.1 µM
same,TGI,SNB-75 CNS,99.3 µM
same,GI50,NCI-H226 lung,> 100000 nM
same,TGI,NCI-H226 lung,> 100 µM
same,GI50,A498 renal,> 100000 nM
same,TGI,A498 renal,> 100 µM
same,GI50,DU-145 prostate,> 100 µM
same,TGI,DU-145 prostate,> 100 µM
same,GI50,NCI-H23 lung,> 100 µM
same,TGI,NCI-H23 lung,> 100 µM
same,GI50,MALME-3M melanoma,> 100 µM
same,TGI,MALME-3M melanoma,> 100 µM
same,GI50,MCF7 breast,> 100 µM
same,TGI,MCF7 breast,> 100 µM
same,GI50,U251 CNS,> 100 µM
same,TGI,U251 CNS,> 100 µM
same,GI50,NCI/ADR-RES ovarian,> 100 µM
same,TGI,NCI/ADR-RES ovarian,> 100 µM
same,GI50,HL-60(TB) leukemia,> 100 µM
same,TGI,HL-60(TB) leukemia,> 100 µM
same,GI50,PC-3 prostate,> 100 µM
same,TGI,PC-3 prostate,> 100 µM
same,GI50,HOP-92 NSCLC,> 100 µM
same,TGI,HOP-92 NSCLC,> 100 µM
same,GI50,T-47D breast,> 100000 nM
same,TGI,T-47D breast,> 100 µM
same,GI50,SR leukemia,> 100 µM
same,TGI,SR leukemia,> 100 µM
same,GI50,NCI-H460 lung,> 100 µM
same,TGI,NCI-H460 lung,> 100 µM
same,GI50,SK-MEL-28 melanoma,> 100 µM
same,TGI,SK-MEL-28 melanoma,> 100 µM
same,GI50,HCT-15 colon,> 100 µM
same,TGI,HCT-15 colon,> 100 µM
same,GI50,SK-MEL-2 melanoma,> 100 µM
same,TGI,SK-MEL-2 melanoma,> 100 µM
same,GI50,HCT-116 colon,> 100 µM
same,TGI,HCT-116 colon,> 100 µM
same,GI50,UACC-62 melanoma,> 100 µM
same,TGI,UACC-62 melanoma,> 100 µM
same,GI50,OVCAR-5 ovarian,> 100 µM
same,TGI,OVCAR-5 ovarian,> 100 µM
same,GI50,KM12 colon,> 100 µM
same,TGI,KM12 colon,> 100 µM
same,GI50,MDA-MB-435,> 100 µM
same,TGI,MDA-MB-435,> 100 µM
same,GI50,HOP-62 NSCLC,> 100 µM
same,TGI,HOP-62 NSCLC,> 100 µM
same,GI50,SF-268 CNS,> 100 µM
same,TGI,SF-268 CNS,> 100 µM
COc1cccc(-c2cc(C(=O)Nc3ccc(/C=C/c4ccc(OC5CCN(C)CC5)cc4)cc3)ccc2OC)c1,GI50,RPMI-8226 leukemia,2180 nM
same,TGI,RPMI-8226 leukemia,5.15 µM
same,GI50,OVCAR-8 ovarian,1960 nM
same,TGI,OVCAR-8 ovarian,4.59 µM
same,GI50,HCC-2998 colon,1830 nM
same,TGI,HCC-2998 colon,3.32 µM
same,GI50,CCRF-CEM leukemia,1930 nM
same,TGI,CCRF-CEM leukemia,5.14 µM
same,GI50,SK-OV-3 ovarian,2100 nM
same,TGI,SK-OV-3 ovarian,5.13 µM
same,GI50,CAKI-1 renal,10.6 µM
same,TGI,CAKI-1 renal,45.6 µM
same,GI50,NCI-H226 lung,2070 nM
same,TGI,NCI-H226 lung,5.04 µM
same,GI50,A498 renal,1390 nM
same,TGI,A498 renal,3.8 µM
same,GI50,T-47D breast,1700 nM
same,TGI,T-47D breast,4.98 µM
